Data as given in PubChem BioAssay (NCI).
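Growth conditions: 96-well plates. Treatment: test compound, 48 hours, 5 concentrations. Analysis: linear interpolation between bracketing concentrations; unreached endpoints set to highest concentration. TGI: total growth inhibition.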

Experiments:
Experiment in all cases: DTP human tumour cell line panel, 48 h
[1] = system: SW-620 colon
[2] = system: OVCAR-8 ovarian
[3] = system: ACHN renal
[4] = system: M14 melanoma
[5] = system: U251 CNS
[6] = system: SK-MEL-5 melanoma
[7] = system: K-562 leukemia
[8] = system: TK-10 renal
[9] = system: A549 NSCLC
[10] = system: SF-295 CNS
[11] = system: OVCAR-3 ovarian
[12] = system: SK-MEL-28 melanoma
[13] = system: 786-0 renal
[14] = system: OVCAR-5 ovarian
[15] = system: MOLT-4 leukemia
[16] = system: SNB-75 CNS
[17] = system: DLD-1 colon
[18] = system: OVCAR-4 ovarian
[19] = system: HCT-15 colon
[20] = system: SF-268 CNS
[21] = system: SN12C renal
[22] = system: COLO 205 colon
[23] = system: KM12 colon
[24] = system: LXFL 529 NSCLC
[25] = system: SNB-19 CNS
[26] = system: MALME-3M melanoma
[27] = system: RXF 393 renal
[28] = system: SF-539 CNS
[29] = system: LOX IMVI melanoma
[30] = system: NCI-H460 lung
[31] = system: SK-OV-3 ovarian
[32] = system: SNB-78 CNS
[33] = system: XF 498 CNS
[34] = system: M19-MEL melanoma
[35] = system: RXF-631 renal
[36] = system: HOP-18 NSCLC
[37] = system: DMS 114 small cell lung
[38] = system: NCI-H23 lung
[39] = system: SR leukemia
[40] = system: CCRF-CEM leukemia
[41] = system: HCC-2998 colon
[42] = system: RPMI-8226 leukemia
[43] = system: EKVX NSCLC
[44] = system: IGROV1 ovarian
[45] = system: UACC-62 melanoma
[46] = system: HT29 colon
[47] = system: DMS 273 small cell lung
[48] = system: NCI-H226 lung
[49] = system: A498 renal
[50] = system: UO-31 renal
[51] = system: HOP-62 NSCLC
[52] = system: HCT-116 colon
[53] = system: HL-60(TB) leukemia
[54] = system: HOP-92 NSCLC
[55] = system: SK-MEL-2 melanoma
[56] = system: NCI-H522 lung
[57] = system: UACC-257 melanoma
[58] = system: CAKI-1 renal
[59] = system: KM20L2 colon

Structure (SMILES): O=C1NC(=O)C2C1c1[nH]c3ccccc3c1C1CCCC12 (stereo unspecified)
- TGI [1]: > 100 µM
- TGI [2]: 64.5 µM
- TGI [3]: > 100 µM
- TGI [4]: > 100 µM
- TGI [5]: 22.6 µM
- TGI [6]: 8.66 µM
- TGI [7]: > 100 µM
- TGI [8]: > 100 µM
- TGI [9]: > 100 µM
- TGI [10]: 6.56 µM
- TGI [11]: 5.64 µM
- TGI [12]: > 100 µM
- TGI [13]: > 100 µM
- TGI [14]: > 100 µM
- TGI [15]: > 100 µM
- TGI [16]: 6.29 µM
- TGI [17]: > 100 µM
- TGI [18]: > 100 µM
- TGI [19]: > 100 µM
- TGI [20]: 39.1 µM
- TGI [21]: > 100 µM
- TGI [22]: 32.1 µM
- TGI [23]: > 100 µM
- TGI [24]: > 100 µM
- TGI [25]: > 100 µM
- TGI [26]: > 100 µM
- TGI [27]: 24.4 µM
- TGI [28]: 11.8 µM
- TGI [29]: > 100 µM
- TGI [30]: > 100 µM
- TGI [31]: 45.4 µM
- TGI [32]: > 100 µM
- TGI [33]: 6.85 µM
- TGI [34]: > 100 µM
- TGI [35]: > 100 µM
- TGI [36]: 83.8 µM
- TGI [37]: 29.5 µM
- TGI [38]: > 100 µM
- TGI [39]: > 100 µM
- TGI [40]: > 100 µM
- TGI [41]: > 100 µM
- TGI [42]: > 100 µM
- TGI [43]: > 100 µM
- TGI [44]: > 100 µM
- TGI [45]: > 100 µM
- TGI [46]: > 100 µM
- TGI [47]: 12.6 µM
- TGI [48]: 51.7 µM
- TGI [49]: 26.6 µM
- TGI [50]: > 100 µM

Structure (SMILES): CCOC(=O)C(=O)Nc1cccc(Cl)c1C
- TGI [1]: > 100 µM
- TGI [2]: > 100 µM
- TGI [3]: > 100 µM
- TGI [4]: > 100 µM
- TGI [5]: > 100 µM
- TGI [51]: > 100 µM
- TGI [6]: > 100 µM
- TGI [7]: > 100 µM
- TGI [8]: > 100 µM
- TGI [52]: > 100 µM
- TGI [9]: > 100 µM
- TGI [10]: > 100 µM
- TGI [11]: > 100 µM
- TGI [12]: > 100 µM
- TGI [53]: > 100 µM
- TGI [54]: > 100 µM
- TGI [13]: > 100 µM
- TGI [14]: > 100 µM
- TGI [15]: > 100 µM
- TGI [17]: > 100 µM
- TGI [18]: > 100 µM
- TGI [55]: > 100 µM
- TGI [19]: > 100 µM
- TGI [20]: > 100 µM
- TGI [21]: > 100 µM
- TGI [22]: > 100 µM
- TGI [23]: > 100 µM
- TGI [24]: > 100 µM
- TGI [25]: > 100 µM
- TGI [26]: > 100 µM
- TGI [27]: > 100 µM
- TGI [28]: > 100 µM
- TGI [29]: > 100 µM
- TGI [30]: > 100 µM
- TGI [56]: > 100 µM
- TGI [31]: > 100 µM
- TGI [32]: > 100 µM
- TGI [57]: > 100 µM
- TGI [33]: > 100 µM
- TGI [58]: > 100 µM
- TGI [34]: > 100 µM
- TGI [35]: > 100 µM
- TGI [36]: > 100 µM
- TGI [37]: > 100 µM
- TGI [38]: > 100 µM
- TGI [40]: > 100 µM
- TGI [41]: > 100 µM
- TGI [42]: > 100 µM
- TGI [43]: > 100 µM
- TGI [44]: > 100 µM
- TGI [45]: > 100 µM
- TGI [46]: > 100 µM
- TGI [48]: > 100 µM
- TGI [50]: > 100 µM

Structure (SMILES): CC(=O)N(C)C=C1C(=O)N(C)C(=O)N(C)C1=O
- TGI [1]: > 100 µM
- TGI [2]: > 100 µM
- TGI [3]: > 100 µM
- TGI [4]: > 100 µM
- TGI [5]: > 100 µM
- TGI [6]: > 100 µM
- TGI [7]: > 100 µM
- TGI [8]: > 100 µM
- TGI [52]: > 100 µM
- TGI [9]: > 100 µM
- TGI [10]: > 100 µM
- TGI [11]: > 100 µM
- TGI [12]: > 100 µM
- TGI [53]: > 100 µM
- TGI [54]: > 100 µM
- TGI [13]: > 100 µM
- TGI [14]: > 100 µM
- TGI [15]: > 100 µM
- TGI [16]: > 100 µM
- TGI [17]: > 100 µM
- TGI [18]: > 100 µM
- TGI [55]: > 100 µM
- TGI [59]: > 100 µM
- TGI [19]: > 100 µM
- TGI [21]: > 100 µM
- TGI [23]: > 100 µM
- TGI [24]: > 100 µM
- TGI [25]: > 100 µM
- TGI [26]: > 100 µM
- TGI [27]: > 100 µM
- TGI [28]: > 100 µM
- TGI [29]: > 100 µM
- TGI [30]: > 100 µM
- TGI [57]: > 100 µM
- TGI [33]: > 100 µM
- TGI [58]: > 100 µM
- TGI [34]: > 100 µM
- TGI [35]: > 100 µM
- TGI [36]: > 100 µM
- TGI [37]: > 100 µM
- TGI [38]: > 100 µM
- TGI [39]: > 100 µM
- TGI [40]: > 100 µM
- TGI [41]: > 100 µM
- TGI [42]: > 100 µM
- TGI [43]: > 100 µM
- TGI [45]: > 100 µM
- TGI [46]: > 100 µM
- TGI [47]: > 100 µM
- TGI [48]: > 100 µM
- TGI [49]: > 100 µM
- TGI [50]: > 100 µM
